ChEMBL document CHEMBL5360614, “Quinoline Thiourea-Based Zinc Ionophores with Antibacterial Activity” (J Med Chem, 2023)
In brackets after ≈: the same amount, converted by molar mass. Activity calls are given as the source filed them. The rule behind the calls is not given here. Non-standard residues stand in square brackets, D forms with d. Residues, ends and D or L forms follow the SMILES beside them. ξ: configuration not given here. Orn = NCCC[C@H](N)C(=O)O; ξP = O=C(O)C1CCCN1

Legend:
[1] = system: Staphylococcus aureus; experiment: Antibacterial activity against Staphylococcus aureus MTCC-96 assessed as reduction in bacterial growth incubated for 14 to 16 hrs by microbroth dilution method; type: functional; conditions: time 14-16 hrs
[2] = system: Escherichia coli; experiment: Antibacterial activity against Escherichia coli MTCC 1687 assessed as reduction in bacterial growth incubated for 14 to 16 hrs by microbroth dilution method; type: functional; conditions: time 14-16 hrs
[3] = system: Staphylococcus aureus; experiment: Antibacterial activity against gentamicin-and methicillin-resistant Staphylococcus aureus ATCC 33592 assessed as reduction in bacterial growth incubated for 14 to 16 hrs by microbroth dilution method; type: functional; conditions: time 14-16 hrs
[4] = system: Staphylococcus aureus; experiment: Antibacterial activity against Staphylococcus aureus MTCC-96 assessed as reduction in bacterial growth incubated for 14 to 16 hrs in presence of 100 to 400 uM ZnBr2 by microbroth dilution method; type: functional, organism-based; conditions: time 14-16 hrs
[5] = system: Lipid bilayer; experiment: (§1) Induction of ionophore activity across EYPC:CHOL (8:2) large unilamellar vesicles assessed as transmembrane anion transport by measuring decrease in fluorescence intensity for HPTS dye preincubated for 3 mins followed by ZnBr2 addition and mesured after 7.5 mins by HPTS dye based fluorescence spectrophotometric analysis; conditions: filed as opener; time 10.5 min
[6] = system: Lipid bilayer; experiment: as §1, with “HPTS dye at 10 uM preincubated for” for “HPTS dye preincubated for”, “followed by ZnCl2 addition and” for “followed by ZnBr2 addition and”; conditions: filed as opener, time 10.5 min
[7] = system: Lipid bilayer; experiment: as §1, with “cation” for “anion”, “MgCl2” for “ZnBr2”; conditions: time 10.5 min
[8] = system: Staphylococcus aureus; experiment: Antibacterial activity against Staphylococcus aureus MTCC-96 assessed as reduction in bacterial growth incubated for 14 to 16 hrs in presence of 100 to 400 uM MgCl2 by microbroth dilution method; type: functional, organism-based; conditions: time 14-16 hrs
[9] = system: Cell membrane; experiment: Induction of cell membrane depolarization in Staphylococcus aureus MTCC-96 assessed as change in fluorescence intensity at 3.13 uM by DiSC3-5 dye based fluorescence method; type: subcellular
[10] = system: Lipid bilayer; experiment: as §1, with “Zn(NO3)2” for “ZnBr2”; conditions: filed as opener; time 10.5 min
[11] = system: Lipid bilayer; experiment: as §1, with “cation” for “anion”, “NaCl” for “ZnBr2”; conditions: time 10.5 min
[12] = system: Lipid bilayer; experiment: as §1, with “cation” for “anion”, “KCl” for “ZnBr2”; conditions: time 10.5 min
[13] = system: Lipid bilayer; experiment: Induction of ionophore activity across EYPC:CHOL (8:2) large unilamellar vesicles assessed as transmembrane Zn2+ ion transport by measuring decrease in fluorescence intensity for HPTS dye at 10 uM preincubated for 3 mins followed by ZnCl2 addition and mesured after 7.5 mins by HPTS dye based fluorescence spectrophotometric analysis; conditions: filed as opener, time 10.5 min
[14] = system: Lipid bilayer; experiment: as §1, with “cation” for “anion”, “CuCl2” for “ZnBr2”; conditions: filed as opener; time 10.5 min
[15] = system: Staphylococcus aureus; experiment: Antibacterial activity against Staphylococcus aureus MTCC-96 assessed as resistance development by measuring fold increase in MIC and measured after 30 days in presence of ZnCl2 by microbroth dilution method; type: functional, organism-based; conditions: time 30.0 day
[16] = system: Lipid bilayer; experiment: as §1, with “cation” for “anion”, “RbCl” for “ZnBr2”; conditions: time 10.5 min
[17] = system: Staphylococcus aureus; experiment: Antibacterial activity against Staphylococcus aureus MTCC-96 assessed as reduction in bacterial growth incubated for 14 to 16 hrs in presence of 100 to 400 uM ZnSO4 by microbroth dilution method; type: functional, organism-based; conditions: time 14-16 hrs
[18] = system: Lipid bilayer; experiment: as §1, with “cation” for “anion”, “LiCl” for “ZnBr2”; conditions: time 10.5 min
[19] = system: MDA-MB-231; experiment: Cytotoxicity against human MDA-MB-231 cells assessed as reduction in cell viability at 1 to 100 uM incubated for 44 hrs by MTT assay; type: toxicity, cell-based; conditions: mda-mb-231, 44 h, dose 1-100 µM
[20] = system: A549; experiment: Cytotoxicity against human A549 cells assessed as reduction in cell viability at 1 to 100 uM incubated for 44 hrs by MTT assay; type: toxicity, cell-based; conditions: a549, 44 h, dose 1-100 µM
[21] = system: Lipid bilayer; experiment: as §1, with “cation” for “anion”, “MnCl2” for “ZnBr2”; conditions: time 10.5 min
[22] = system: Staphylococcus aureus; experiment: Antibacterial activity against Staphylococcus aureus MTCC-96 assessed as reduction in bacterial growth incubated for 14 to 16 hrs in presence of 100 to 400 uM CuCl2 by microbroth dilution method; type: functional, organism-based; conditions: time 14-16 hrs
[23] = system: Staphylococcus aureus; experiment: Antibacterial activity against Staphylococcus aureus MTCC-96 assessed as reduction in bacterial growth incubated for 14 to 16 hrs in presence of EGTA by microbroth dilution method; type: functional; conditions: time 14-16 hrs
[24] = system: Staphylococcus aureus; experiment: Antibacterial activity against Staphylococcus aureus MTCC-96 assessed as reduction in bacterial growth incubated for 14 to 16 hrs in presence of 100 to 400 uM Zn(NO3)2 by microbroth dilution method; type: functional, organism-based; conditions: time 14-16 hrs
[25] = system: Lipid bilayer; experiment: as §1, with “cation” for “anion”, “CsCl” for “ZnBr2”; conditions: time 10.5 min
[26] = system: Staphylococcus aureus; experiment: Antibacterial activity against Staphylococcus aureus MTCC-96 assessed as reduction in bacterial growth incubated for 14 to 16 hrs in presence of 400 uM ZnCl2 by microbroth dilution method; type: functional; conditions: time 14-16 hrs
[27] = system: Staphylococcus aureus; experiment: Antibacterial activity against Staphylococcus aureus MTCC-96 assessed as reduction in bacterial growth incubated for 14 to 16 hrs in presence of 100 to 400 uM CsCl by microbroth dilution method; type: functional, organism-based; conditions: time 14-16 hrs
[28] = system: Staphylococcus aureus; experiment: Antibacterial activity against Staphylococcus aureus MTCC-96 assessed as reduction in bacterial growth incubated for 14 to 16 hrs in presence of 100 to 400 uM CaCl2 by microbroth dilution method; type: functional, organism-based; conditions: time 14-16 hrs
[29] = system: Staphylococcus aureus; experiment: Bactericidal activity against Staphylococcus aureus MTCC-96 at 2 times MIC incubated for 2 hrs in presence of ZnCl2 by time kill assay; type: functional, organism-based
[30] = system: MCF7; experiment: Cytotoxicity against human MCF7 cells assessed as reduction in cell viability at 1 to 100 uM incubated for 44 hrs by MTT assay; type: toxicity, cell-based; conditions: mcf7, 44 h, dose 1-100 µM
[31] = system: HCT-116; experiment: Cytotoxicity against human HCT-116 cells assessed as reduction in cell viability at 1 to 100 uM incubated for 44 hrs by MTT assay; type: toxicity, cell-based; conditions: hct-116, 44 h, dose 1-100 µM
[32] = system: Erythrocyte; experiment: Hemolytic activity in human Red blood cells assessed as hemolysis rate at 1.6 to 50 uM incubated for 1 to 24 hrs in presence of ZnCl2 by absorbance based analysis; type: toxicity, cell-based; conditions: dose lower 1.6 µM, time lower 1 hrs, dose upper 50 µM, time upper 24 hrs
[33] = system: Staphylococcus aureus; experiment: Antibacterial activity against Staphylococcus aureus MTCC-96 assessed as resistance development by measuring fold increase in MIC and measured after 30 days by microbroth dilution method; type: functional; conditions: time 30 day
[34] = system: Lipid bilayer; experiment: as §1, with “cation” for “anion”, “CaCl2” for “ZnBr2”; conditions: time 10.5 min
[35] = system: Staphylococcus aureus; experiment: Antibacterial activity against Staphylococcus aureus MTCC-96 assessed as reduction in bacterial growth incubated for 14 to 16 hrs in presence of 100 to 400 uM MnCl2 by microbroth dilution method; type: functional, organism-based; conditions: time 14-16 hrs
[36] = system: MCF-10A; experiment: Cytotoxicity against human MCF-10A cells assessed as reduction in cell viability at 1 to 100 uM incubated for 44 hrs by MTT assay; type: toxicity, cell-based; conditions: dose 1-100 µM
[37] = system: Staphylococcus aureus; experiment: Disruption of membrane integrity in Staphylococcus aureus MTCC-96 assessed as change in cocci shape in presence of Zn2+ ion by FE-SEM analysis; type: functional, organism-based
[38] = system: Lipid bilayer; experiment: as §1, with “ZnSO4” for “ZnBr2”; conditions: filed as opener; time 10.5 min
[39] = system: Staphylococcus aureus; experiment: Disruption of membrane integrity in Staphylococcus aureus MTCC-96 assessed as increase in fluorescence intensity at 4 to 8 uM by PI staining based fluorescence analysis; type: functional, organism-based; conditions: dose 4-8 µM
[40] = system: Staphylococcus aureus; experiment: Bactericidal activity against Staphylococcus aureus MTCC-96 assessed as reduction in bacterial colony formation at 2 times MIC incubated upto 8 hrs in presence of ZnCl2 by agar-plate method; type: functional, organism-based
[41] = system: Staphylococcus aureus; experiment: Antibacterial activity against Staphylococcus aureus MTCC-96 assessed as fold reduction in bacterial growth incubated for 14 to 16 hrs in presence of 400 uM ZnCl2 by microbroth dilution method; type: functional; conditions: time 14-16 hrs
[42] = system: Staphylococcus aureus; experiment: Bactericidal activity against Staphylococcus aureus MTCC-96 at 2 times MIC incubated for 2 hrs by time kill assay; type: functional, organism-based

O=[N+]([O-])c1ccc(NC(=S)Nc2cccc3cccnc23)cc1
MIC [1]: > 25 µM | MIC [2]: > 50 µM | MIC [3]: > 50 µM

[O-][n+]1ccccc1S [PYRITHIONE]
MIC [1]: 9.8 µM (≈ 1.25 µg/mL)

FC(F)(F)c1cc(NC(=S)Nc2cccc3ccc(Nc4nc5ccccc5[nH]4)nc23)cc(C(F)(F)F)c1
MIC [1]: > 50 µM | MIC [2]: > 50 µM | MIC [3]: > 50 µM

CC(C)C[C@@H]1NC(=O)[C@H](CCCN)NC(=O)[C@H](C(C)C)NC(=O)[C@@H]2CCCN2C(=O)[C@@H](Cc2ccccc2)NC(=O)[C@H](CC(C)C)NC(=O)[C@H](CCCN)NC(=O)[C@H](C(C)C)NC(=O)C2CCCN2C(=O)[C@@H](Cc2ccccc2)NC1=O (some centres undefined) (cyclo(L[dF]PV[Orn]L[dF][ξP]V[Orn]))
MIC [1]: 3.12 µM (≈ 3.56 µg/mL) | MIC [2]: 4.51 µM (≈ 5.15 µg/mL) | MIC [3]: 6.5 µM (≈ 7.42 µg/mL)

FC(F)(F)c1cc(NC(=S)Nc2cccc3ccc(-n4cccc4)nc23)cc(C(F)(F)F)c1
MIC [1]: > 50 µM | MIC [2]: > 50 µM | MIC [3]: > 50 µM

FC(F)(F)c1ccc(NC(=S)Nc2cccc3cccnc23)cc1
MIC [1]: 6.25 µM (≈ 2.17 µg/mL) | MIC [2]: > 50 µM | MIC [3]: 6.25 µM (≈ 2.17 µg/mL)

O=C(Nc1cc(C(F)(F)F)cc(C(F)(F)F)c1)Nc1cccc2cccnc12
MIC [1]: > 50 µM | MIC [2]: > 50 µM | MIC [3]: > 50 µM

COc1ccc(NC(=S)Nc2cccc3cccnc23)cc1
MIC [1]: > 25 µM | MIC [2]: > 50 µM | MIC [3]: > 50 µM

FC(F)(F)c1cc(NC(=S)Nc2cccc3cccnc23)cc(C(F)(F)F)c1
Activity [4]: Active | Activity [5]: Active | Activity [6]: Active | Activity [7]: inactive | Activity [8]: inactive | Activity [9]: inactive | Activity [10]: Active | Activity [11]: inactive | Activity [12]: inactive | MIC [1]: 3.13 µM (≈ 1.3 µg/mL) | Activity [13]: Active | Activity [14]: Active | Activity [15]: Active | Activity [16]: inactive | Activity [17]: Active | Activity [18]: inactive | Activity [19]: Non-Toxic | Activity [20]: Non-Toxic | Activity [21]: inactive | Activity [22]: inactive | MIC [23]: 6.25 µM | Activity [24]: Active | Activity [25]: inactive | MIC [26]: 0.47 µM | Activity [27]: inactive | Activity [28]: inactive | Activity [29]: Active | Activity [30]: Non-Toxic | Activity [31]: Non-Toxic | Activity [32]: Non-Toxic | fold change (FC) [33]: 16 | Activity [34]: inactive | Activity [35]: inactive | Activity [36]: Non-Toxic | Activity [37]: inactive | Activity [38]: Active | Activity [39]: inactive | Activity [40]: Active | MIC [2]: > 50 µM | MIC [3]: 3.13 µM (≈ 1.3 µg/mL) | fold change (FC) [41]: 6.65 | Activity [42]: Active
